From ChEMBL document CHEMBL4421733, “Inhibitors of eya2” (2012) come the findings set out here.

Experiment [1] can be described thus: Binding affinity to Mg2+ ion in acetonitrile assessed as induction of shift in the maximum absorbance wavelength by UV spectroscopy.
Experiment [2] in a line: Binding affinity to Mg2+ ion at 25 uM in aqueous buffers by UV spectroscopy.
The nature of experiment [3]: Binding affinity to Mg2+ ion assessed as induction of chemical shift at 5 mM in presence of in presence of 25 mM magnesium 1H-NMR spectroscopy.
Experiment [4] in a line: Binding affinity to Na+ ion assessed as induction of chemical shift at 5 mM by 1H-NMR spectroscopy.
The nature of experiment [5]: Binding affinity to Na+ ion in acetonitrile at 12.5 uM assessed as induction of shift in the maximum absorbance wavelength by UV spectroscopy.
Experiment [6] has as its target T1, Protein phosphatase EYA2 (Homo sapiens) (UniProt O00167).
T1 sequence (whole entry): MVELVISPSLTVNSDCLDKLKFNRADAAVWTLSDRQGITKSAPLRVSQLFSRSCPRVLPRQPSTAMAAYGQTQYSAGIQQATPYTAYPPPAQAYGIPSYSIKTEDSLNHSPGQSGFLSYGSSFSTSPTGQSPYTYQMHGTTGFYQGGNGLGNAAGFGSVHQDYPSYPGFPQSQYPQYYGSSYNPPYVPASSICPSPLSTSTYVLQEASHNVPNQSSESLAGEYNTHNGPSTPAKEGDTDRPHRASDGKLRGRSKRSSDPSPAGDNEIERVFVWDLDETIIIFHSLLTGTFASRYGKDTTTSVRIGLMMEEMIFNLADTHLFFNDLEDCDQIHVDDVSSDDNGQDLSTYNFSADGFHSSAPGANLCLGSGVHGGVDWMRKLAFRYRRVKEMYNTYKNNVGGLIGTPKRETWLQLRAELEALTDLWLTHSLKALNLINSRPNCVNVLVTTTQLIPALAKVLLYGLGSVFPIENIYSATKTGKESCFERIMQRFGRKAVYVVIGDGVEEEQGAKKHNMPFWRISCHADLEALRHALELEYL
Put plainly: Inhibition of GST-fused human Eya2 ED (253 to 538 residues) expressed in Escherichia coli at […] pre-incubated for 10 mins followed by OMFP substrate addition and further incubated for 30 mins by fluorescence based assay.

The nature of experiment [7]: Binding affinity to Mg2+ ion in acetonitrile assessed as induction of shift in the maximum absorbance wavelength at 25 uM by UV spectroscopy.

The source made the active and inactive calls. The calls are words filed in the database; no cut-off is given here.

Take `O=C(N/N=C/c1ccc(Sc2ccccn2)o1)c1cccc(F)c1`: the Activity result is “Dose-dependent effect” in experiment [1] and -0.6 ppm in experiment [3]. Further, the result in experiment [2], in experiment [4] and in experiment [5] was inactive.
On to `N[C@@H](Cc1ccccc1)C(=O)O`, for which the inhibition result in experiment [6] was “inactive”.
For `Cc1ccccc1C(=O)N/N=C/c1ccc(Sc2ccccn2)o1`, in experiment [7], the result was Active.
For `c1cnc2c(c1)ccc1cccnc12`, the inhibition result in experiment [6] was “inactive”.
Still for that read-out and setting: the same measure for `C=C1[C@@H](O)[C@@H]2O[C@@]3(CC[C@H](/C=C/[C@@H](C)[C@@H]4CC(C)=C[C@@]5(O[C@H](C[C@@](C)(O)C(=O)O)CC[C@H]5O)O4)O3)CC[C@H]2O[C@@H]1[C@@H](O)C[C@H](C)[C@H]1O[C@@]2(CCCCO2)CC[C@H]1C`: “inactive”.
